According to US20220378773A1, “METHODS FOR TREATING LEUKEMIA AND USE OF A LEUKEMIC STEM CELL SIGNATURE TO PREDICT CLINICAL SENSITIVITY TO THERAPIES” (CELGENE CORPORATION, priority 2019, published 2022):

Columns and labels:
AML graft = assay: In vivo apoptosis and cell death (propidium iodide staining); set-up: species or system NOD/SCID mice; details: after 4 weeks treatment
Source text: After treatment finished, cells were harvested from both injected right femur (RF) and non-injected bone marrow (BM, including left femur, 2 tibias), and stained with human antibodies to assess the engraftment levels of AML. Antibodies used for staining included: Mouse anti-human CD45-APC, CD15-FITC, CD34-APC7, CD38-PC7 (BD Biosciences, USA), CD14-PE, CD33-PC5 (Beckman Coulter, USA), CD19-V450, CD19-AF700, CD11b-APC7, CD34-BV421 (BD Biosciences, USA), and propidium iodide (PI; Invitrogen, USA).
Following 4 weeks Compound D treatment, harvested cells were stained with propidium iodide (PI) for detecting apoptotic and dead leukemia cells. […] To determine whether GSPT1 can also be degraded by Compound D administration in vivo, leukemia cells were harvested after 3 doses of Compound D treatment for intracellular flow cytometry to assess the levels of GSPT1 in both injected RF and non-injected BM. […] It seems that Compound D degraded GSPT1 more profoundly in the injected RF than in non-injected BM. More samples had lesser GSPT1 reduction in the non-injected BM than in RF. Perhaps this reflects differences in the niche or blood supply between these sites; intrafemoral (IF) injection involves reaming out the femoral cavity prior to cell injection. […]

[1] = test system: AML graft (human CD45+CD33+ cells); assay: AML xenograft efficacy, 2.5 mg/kg IP twice daily; format: in vivo, NOD/SCID mice; details: AML Patient 90668; 500,000 cells per mouse; dosing from Day 21
[2] = test system: normal cord blood-derived human graft; set-up: species or system NOD/SCID mice; details: mouse, in vivo
Experimental: Normal cord blood experiment was carried out similar to what has been described as above but using CD34+ cells isolated from normal cord blood. Two or three normal donors were pulled together to generate enough cells for each of the CB engraftments, termed CB1 and CB2.
Compound D toxicity on normal hematopoietic cells was investigated using CB samples. Mice were transplanted with two different CB samples (CB1 and CB2) and dosed with 2.5 mg/kg Compound D or vehicle control BID intraperitoneally. Flow cytometric analyses from a representative mouse from the vehicle- and Compound D-treated groups are shown in FIG. 8A and FIG. 8B, respectively.

O=C1CCC(N2Cc3cc(CNC(=O)C(F)(F)c4ccc(Cl)cc4)ccc3C2=O)C(=O)N1 (stereo not shown) [Compound D, 2-(4-chlorophenyl)-N-((2-(2,6-dioxopiperidin-3-yl)-1-oxoisoindolin-5-yl)methyl)-2,2-difluoroacetamide]
number of PI+ events in mouse bone marrow (AML graft): significantly increased
survival [1]: did not improve survival
human graft remaining after treatment ([2]; NOD/SCID, 4 weeks): 5-10%
percentage of CD34+ cells ([2]; NOD/SCID, 4 weeks): did not decrease the percentage of CD34+ cells
CD34+CD19+ primitive lymphoid cells [2]: significantly decreased
CD34+CD33+ primitive myeloid cells [2]: not targeted
absolute number of CD34+ cells [2]: significantly reduced
number of CD19+ lymphocytes [2]: significantly decreased
percentages of CD34+CD38− primary cells [2]: not specifically targeted
proportion of CD33+ myeloid cells [2]: increased
